Each compound was assayed on MV4-11 (assay: 7-day proliferation assay (WST-8), cell growth inhibition). Conditions: Homo sapiens, MV4-11, 168 h, MV4-11 cells, 7 days.
Type: cell-based
Protocol: The effect of representative Compounds of the Disclosure on cell viability was determined in a 7-day proliferation assay. Cells were maintained in the appropriate culture medium with 10% FBS at 37° C. and an atmosphere of 5% CO2.
Cells were seeded in 96-well flat bottom (Corning COSTAR, Corning, NY, cat#3595) at a density of 2,000-3,000 cells/well in 100 μl of culture medium. Compounds were serially diluted in the appropriate medium, and […] the diluted compounds were added to the appropriate wells of the cell plate. After the addition of compounds, the cells were incubated at 37° C. in an atmosphere of 5% CO2 for 7 days. Cell viability was determined using the WST (2-(2-methoxy-4-nitrophenyl)-3-(4-nitrophenyl)-5-(2,4-disulfophenyl)-2H-tetrazolium, monosodium salt) Cell Counting-8 Kit (Dojindo Molecular Technologies, Inc., Rockville, Md.) according to the manufacturers' instructions.
WST-8 reagent was added to each well at a final concentration of 10% (v/v), and then the plates were incubated at 37° C. for 1-2 hours for color development. The absorbance was measured at 450 nm using a SPECTRAmax PLUS plate reader (Molecular Devices, Sunnyvale, Calif.). The readings were normalized to the DMSO-treated cells and the half maximal inhibitory concentration (IC50) was calculated by nonlinear regression (four parameters sigmoid fitted with variable slope, least squares fit, and no constraint) analysis using the GraphPad Prism 5 software (GraphPad Software, La Jolla, Calif.).

IC50	SMILES
< 10 nM	COC(=O)N[C@H]1CCC[C@@H]1[C@](CN1CCC1)(c1cccc(F)c1)C1CCN(CC2(F)CN(c3ccc(S(=O)(=O)c4cccc(C(=O)NC/C=C/S(C)(=O)=O)c4)cc3)C2)CC1 [compound 120]
< 50 nM	C=CC(=O)N1CCCC(S(=O)(=O)c2ccc(N3CC(C)(CN4CCC([C@@](CN5CCC5)(c5cccc(F)c5)[C@H]5CCC[C@@H]5NC(=O)OC)CC4)C3)c(F)c2)C1 (stereo partly drawn) [compound 113]
< 100 nM	COC(=O)N[C@H]1CCC[C@@H]1[C@](CN1CCC1)(c1cccc(F)c1)C1CCN(CC2(F)CN(c3ccc(S(=O)(=O)C4CCCN(C(=O)/C=C/CN5CCCCC5)C4)cc3F)C2)CC1 (stereo partly drawn) [compound 110]
< 50 nM	C=CC(=O)N1CC[C@@H](S(=O)(=O)c2ccc(N3CC(CN4CCC([C@@](CN5CCC5)(c5cccc(F)c5)[C@H]5CCC[C@@H]5NC(=O)OC)CC4)C3)cc2CN2CC(F)C2)C1 [compound 209]
< 50 nM	C=CC(=O)N1CCCC(S(=O)(=O)c2ccc(N3CC(F)(CN4CCC([C@@](CN5CCC5)(c5cccc(F)c5)[C@H]5CCC[C@@H]5NC(=O)OC)CC4)C3)c(F)c2)C1 (stereo partly drawn) [compound 105]
< 50 nM	CC#CC(=O)N1CC[C@@H](S(=O)(=O)c2ccc(N3CC(CN4CCC([C@@](CN5CCC5)(c5cccc(F)c5)[C@H]5CCC[C@@H]5NC(=O)OC)CC4)C3)cc2CN2CC(F)C2)C1 [compound 210]
< 50 nM	C=CC(=O)N1CC(S(=O)(=O)c2ccc(N3CC(F)(CN4CCC([C@@](CN5CCC5)(c5cccc(F)c5)[C@H]5CCC[C@@H]5NC(=O)OC)CC4)C3)c(F)c2)C1 [compound 93]
< 100 nM	CCOC(=O)/C=C/CNC(=O)c1cccc(S(=O)(=O)c2ccc(N3CC(F)(CN4CCC([C@@](CN5CCC5)(c5cccc(F)c5)[C@H]5CCC[C@@H]5NC(=O)OC)CC4)C3)cc2)c1 [compound 119]
< 50 nM	CC#CC(=O)N1CC(S(=O)(=O)c2ccc(N3CC(F)(CN4CCC([C@@](CNC(C)=O)(c5cccc(F)c5)[C@H]5CCC[C@@H]5NC(=O)OC)CC4)C3)cc2CN2CC(F)C2)C1 [compound 178]
< 100 nM	C=CC(=O)N1CCC[C@@H](S(=O)(=O)c2ccc(N3CC(CF)(CN4CCC([C@@](CN5CCC5)(c5cccc(F)c5)[C@H]5CCC[C@@H]5NC(=O)OC)CC4)C3)cc2)C1 [compound 196]
< 50 nM	C=CC(=O)Nc1cc(S(=O)(=O)c2ccc(N3CC(F)(CN4CCC([C@@](CN5CCC5)(c5cccc(F)c5)[C@H]5CCC[C@@H]5NC(=O)OC)CC4)C3)c(F)c2)ccc1F [compound 90]
< 10 nM	C=CC(=O)N1CCC[C@@H](S(=O)(=O)c2ccc(N3CC(CN4CCC([C@@](CN5CCC5)(c5cccc(F)c5)[C@H]5CCC[C@@H]5NC(=O)OC)CC4)C3)cc2)C1 [compound 197]
< 50 nM	C=CC(=O)Nc1cncc(S(=O)(=O)c2ccc(N3CC(CN4CCC([C@@](CN5CCC5)(c5cccc(F)c5)[C@H]5CCC[C@@H]5NC(=O)OC)CC4)C3)cc2)c1 [compound 79]
< 10 nM	COC(=O)N[C@H]1CCC[C@@H]1[C@](CN1CCC1)(c1cccc(F)c1)C1CCN(CC2(F)CN(c3ccc(S(=O)(=O)C4CN(C(=O)/C=C/CN(C)C)C4)cc3F)C2)CC1 [compound 96]
< 50 nM	C=CC(=O)N(C)c1cccc(S(=O)(=O)c2ccc(N3CC(CN4CCC([C@@](CN5CCC5)(c5cccc(F)c5)[C@H]5CCC[C@@H]5NC(=O)OC)CC4)C3)cc2)c1 [compound 77]
< 50 nM	C=CC(=O)Nc1cc(S(=O)(=O)c2ccc(N3CC(CN4CCC([C@@](CN5CCC5)(c5cccc(F)c5)[C@H]5CCC[C@@H]5NC(=O)OC)CC4)C3)cc2)ccc1N(C)CCN(C)C [compound 74]
< 50 nM	C=CC(=O)Nc1cc(S(=O)(=O)c2ccc(N3CC(CN4CCC([C@@](CN5CCC5)(c5cccc(F)c5)[C@H]5CCC[C@@H]5NC(=O)OC)CC4)C3)cc2)ccc1C(F)(F)F [compound 81]
< 500 nM	C#CC(=O)N1CC(S(=O)(=O)c2ccc(N3CC(F)(CN4CCC([C@@](CN5CCC5)(c5cccc(F)c5)[C@H]5CCC[C@@H]5NC(=O)OC)CC4)C3)c(F)c2)C1 [compound 101]

Source: patent US20210115018A1, “PIPERIDINE COMPOUNDS AS COVALENT MENIN INHIBITORS” (THE REGENTS OF THE UNIVERSITY OF MICHIGAN, priority 2018, published 2021)
